Test results from US12077503B2, “Substituted cyclic amides and their use as herbicides” (FMC CORPORATION, priority 2015, dated 2024).

Experiments:
Type in all cases: in vivo
[1] = tested on: barnyardgrass (Echinochloa crus-galli); assay: Test G Pre-Emergence Protocol; conditions: Echinochloa crus-galli, pre-emergence, 312 h, evaluated after 13 days; for pest or weed control at 15.625 g/ha: 15.625 g ai/ha, read-out: Barnyard grass damage rating (100=total damage to plant; 0=no damage to plant); for pest or weed control at 62.5 g/ha: 62.5 g ai/ha, 100=total damage to plant, 0=no damage to plant, read-out: plant damage rating, Barnyardgrass; for pest or weed control at 250 g/ha: 250 g ai/ha, read-out: Barnyardgrass damage rating (100=total damage to plant; 0=no damage to plant)
Summary of the method: (§1)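 Pre-emergence spray, 15.625/62.5/250 g/ha, vehicle acetone:water 50:50 + 0.5% Tween 20, applied 1 d after sowing. Glasshouse 24/16° C, 14 h light, 65% RH, watered twice daily. Visual damage rating at 13 d, 0–100 scale.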

corn (Zea mays) [2] = assay: Test G Pre-Emergence Protocol; conditions: Zea mays, pre-emergence, 312 h, evaluated after 13 days; for plant injury at 15.625 g/ha: 15.625 g ai/ha; for plant injury at 15.625 g/ha / plant injury at 250 g/ha: read-out: Corn damage rating (100=total damage to plant; 0=no damage to plant); for plant injury at 62.5 g/ha: 62.5 g ai/ha, 100=total damage to plant, 0=no damage to plant, read-out: plant damage rating, Corn; for plant injury at 250 g/ha: 250 g ai/ha
Summary of the method: as §1

[3] = tested on: giant foxtail (Setaria faberi); assay: Test G Pre-Emergence Protocol; conditions: Setaria faberi, pre-emergence, 312 h, evaluated after 13 days; for pest or weed control at 15.625 g/ha: 15.625 g ai/ha; for pest or weed control at 15.625 g/ha / pest or weed control at 250 g/ha: read-out: Foxtail, Giant damage rating (100=total damage to plant; 0=no damage to plant); for pest or weed control at 62.5 g/ha: 62.5 g ai/ha, 100=total damage to plant, 0=no damage to plant, read-out: plant damage rating, Foxtail, Giant; for pest or weed control at 250 g/ha: 250 g ai/ha
Summary of the method: as §1

[4] = tested on: ivy-leaved morning glory (Ipomoea hederacea); assay: Test G Pre-Emergence Protocol; conditions: Ipomoea, pre-emergence, 312 h, evaluated after 13 days; for pest or weed control at 15.625 g/ha: 15.625 g ai/ha, read-out: Morning-glory, Ivy-leaved damage rating (100=total damage to plant; 0=no damage to plant); for pest or weed control at 62.5 g/ha: 62.5 g ai/ha, 100=total damage to plant, 0=no damage to plant, read-out: plant damage rating, Morningglory, Ivy-leaved; for pest or weed control at 250 g/ha: 250 g ai/ha, read-out: Morningglory, Ivy-leaved damage rating (100=total damage to plant; 0=no damage to plant)
Summary of the method: as §1

[5] = tested on: redroot pigweed (Amaranthus retroflexus); assay: Test G Pre-Emergence Protocol; conditions: Amaranthus retroflexus, pre-emergence, 312 h, evaluated after 13 days; for pest or weed control at 15.625 g/ha: 15.625 g ai/ha; for pest or weed control at 15.625 g/ha / pest or weed control at 250 g/ha: read-out: Pigweed, Redroot damage rating (100=total damage to plant; 0=no damage to plant); for pest or weed control at 62.5 g/ha: 62.5 g ai/ha, 100=total damage to plant, 0=no damage to plant, read-out: plant damage rating, Pigweed, Redroot; for pest or weed control at 250 g/ha: 250 g ai/ha
Summary of the method: as §1

[6] = tested on: velvetleaf (Abutilon theophrasti); assay: Test G Pre-Emergence Protocol; conditions: Abutilon theophrasti, pre-emergence, 312 h, evaluated after 13 days; for pest or weed control at 15.625 g/ha: 15.625 g ai/ha; for pest or weed control at 15.625 g/ha / pest or weed control at 250 g/ha: read-out: Velvetleaf damage rating (100=total damage to plant; 0=no damage to plant); for pest or weed control at 62.5 g/ha: 62.5 g ai/ha, 100=total damage to plant, 0=no damage to plant, read-out: plant damage rating, Velvetleaf; for pest or weed control at 250 g/ha: 250 g ai/ha
Summary of the method: as §1

[7] = tested on: barnyardgrass (Echinochloa crus-galli); assay: Test G Post-Emergence Protocol; conditions: Echinochloa crus-galli, post-emergence, 312 h; for pest or weed control at 15.625 g/ha: 15.625 g ai/ha, evaluated after 13 days (100=total damage to plant; 0=no damage to plant), read-out: Barnyardgrass damage rating; for pest or weed control at 62.5 g/ha: 62.5 g ai/ha, read-out: Barnyardgrass damage rating (100=total damage to plant; 0=no damage to plant); for pest or weed control at 62.5 g/ha / pest or weed control at 250 g/ha: evaluated after 13 days; for pest or weed control at 250 g/ha: 250 g ai/ha, read-out: damage to plant, Barnyardgrass (100=total damage to plant; 0=no damage to plant)
Summary of the method: (§2)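 Pot-grown seedlings, 8 days old, raised in a glasshouse at 24/16 °C day/night with 14 h light and 65% humidity, were sprayed post-emergence with test compound in acetone/water (50:50) plus 0.5% Tween 20 at 15.625, 62.5 or 250 g/ha. Damage was scored visually 13 days later on a 0–100 scale (100 = total damage).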

corn (Zea mays) [8] = assay: Test G Post-Emergence Protocol; conditions: Zea mays, post-emergence, 312 h; for plant injury at 15.625 g/ha: 15.625 g ai/ha, evaluated after 13 days (100=total damage to plant; 0=no damage to plant), read-out: Corn damage rating; for plant injury at 62.5 g/ha: 62.5 g ai/ha, read-out: Corn damage rating (100=total damage to plant; 0=no damage to plant); for plant injury at 62.5 g/ha / plant injury at 250 g/ha: evaluated after 13 days; for plant injury at 250 g/ha: 250 g ai/ha, read-out: damage to plant, Corn (100=total damage to plant; 0=no damage to plant)
Summary of the method: as §2

[9] = tested on: giant foxtail (Setaria faberi); assay: Test G Post-Emergence Protocol; conditions: Setaria faberi, post-emergence, 312 h; for pest or weed control at 15.625 g/ha: 15.625 g ai/ha, evaluated after 13 days (100=total damage to plant; 0=no damage to plant), read-out: Foxtail, Giant damage rating; for pest or weed control at 62.5 g/ha: 62.5 g ai/ha, read-out: Foxtail, Giant damage rating (100=total damage to plant; 0=no damage to plant); for pest or weed control at 62.5 g/ha / pest or weed control at 250 g/ha: evaluated after 13 days; for pest or weed control at 250 g/ha: 250 g ai/ha, read-out: damage to plant, Foxtail, Giant (100=total damage to plant; 0=no damage to plant)
Summary of the method: as §2

[10] = tested on: ivy-leaved morning glory (Ipomoea hederacea); assay: Test G Post-Emergence Protocol; conditions: Ipomoea, post-emergence, 312 h; for pest or weed control at 15.625 g/ha: 15.625 g ai/ha, evaluated after 13 days (100=total damage to plant; 0=no damage to plant), read-out: Morningglory, Ivy-leaved damage rating; for pest or weed control at 62.5 g/ha: 62.5 g ai/ha, read-out: Morningglory, Ivy-leaved damage rating (100=total damage to plant; 0=no damage to plant); for pest or weed control at 62.5 g/ha / pest or weed control at 250 g/ha: evaluated after 13 days; for pest or weed control at 250 g/ha: 250 g ai/ha, read-out: damage to plant, Morningglory, Ivy-leaved (100=total damage to plant; 0=no damage to plant)
Summary of the method: as §2

[11] = tested on: redroot pigweed (Amaranthus retroflexus); assay: Test G Post-Emergence Protocol; conditions: Amaranthus retroflexus, post-emergence, 312 h; for pest or weed control at 15.625 g/ha: 15.625 g ai/ha, evaluated after 13 days (100=total damage to plant; 0=no damage to plant), read-out: Pigweed, Redroot damage rating; for pest or weed control at 62.5 g/ha: 62.5 g ai/ha, read-out: Pigweed, Redroot damage rating (100=total damage to plant; 0=no damage to plant); for pest or weed control at 62.5 g/ha / pest or weed control at 250 g/ha: evaluated after 13 days; for pest or weed control at 250 g/ha: 250 g ai/ha, read-out: damage to plant, Pigweed, Redroot (100=total damage to plant; 0=no damage to plant)
Summary of the method: as §2

[12] = tested on: velvetleaf (Abutilon theophrasti); assay: Test G Post-Emergence Protocol; conditions: Abutilon theophrasti, post-emergence, 312 h; for pest or weed control at 15.625 g/ha: 15.625 g ai/ha, evaluated after 13 days (100=total damage to plant; 0=no damage to plant), read-out: Velvetleaf damage rating; for pest or weed control at 62.5 g/ha: 62.5 g ai/ha, read-out: Velvetleaf damage rating (100=total damage to plant; 0=no damage to plant); for pest or weed control at 62.5 g/ha / pest or weed control at 250 g/ha: evaluated after 13 days; for pest or weed control at 250 g/ha: 250 g ai/ha, read-out: damage to plant, Velvetleaf (100=total damage to plant; 0=no damage to plant)
Summary of the method: as §2

Row | SMILES | pest or weed control at 15.625 g/ha [1] | pest or weed control at 62.5 g/ha [1] | pest or weed control at 250 g/ha [1] | plant injury at 15.625 g/ha (corn (Zea mays) [2]) | plant injury at 62.5 g/ha (corn (Zea mays) [2]) | plant injury at 250 g/ha (corn (Zea mays) [2]) | pest or weed control at 15.625 g/ha [3] | pest or weed control at 62.5 g/ha [3] | pest or weed control at 250 g/ha [3] | pest or weed control at 15.625 g/ha [4] | pest or weed control at 62.5 g/ha [4] | pest or weed control at 250 g/ha [4] | pest or weed control at 15.625 g/ha [5] | pest or weed control at 62.5 g/ha [5] | pest or weed control at 250 g/ha [5] | pest or weed control at 15.625 g/ha [6] | pest or weed control at 62.5 g/ha [6] | pest or weed control at 250 g/ha [6] | pest or weed control at 15.625 g/ha [7] | pest or weed control at 62.5 g/ha [7] | other results
1 | C[C@@]1(C(=O)Nc2cccc(F)c2F)C(=O)NC[C@@H]1c1ccc(C(F)(F)F)cc1 (racemic) [Compound 1405] | 0% | 0% | 0% | 0% | 0% | 0% | 0% | 0% | 0% | 0% | 0% | 0% | 0% | 0% | 0% | 0% | 0% | 0% | 0% | 0% | pest or weed control at 250 g/ha [7]: 0%; plant injury at 15.625 g/ha (corn (Zea mays) [8]): 0%; plant injury at 62.5 g/ha (corn (Zea mays) [8]): 0%; plant injury at 250 g/ha (corn (Zea mays) [8]): 0%; pest or weed control at 15.625 g/ha [9]: 0%; pest or weed control at 62.5 g/ha [9]: 0%; pest or weed control at 250 g/ha [9]: 0%; pest or weed control at 15.625 g/ha [10]: 0%; pest or weed control at 62.5 g/ha [10]: 0%; pest or weed control at 250 g/ha [10]: 0%; pest or weed control at 15.625 g/ha [11]: 0%; pest or weed control at 62.5 g/ha [11]: 0%; pest or weed control at 250 g/ha [11]: 0%; pest or weed control at 15.625 g/ha [12]: 0%; pest or weed control at 62.5 g/ha [12]: 0%; pest or weed control at 250 g/ha [12]: 0%
2 | CN1C[C@H](c2ccc(C(C)(C)C#N)cc2)[C@@H](C(=O)Nc2ccccc2F)C1=O (racemic) [Compound 1408] | 0% | 0% | 20% | 0% | 0% | 10% | 0% | 20% | 70% | 0% | 0% | 0% | 0% | 0% | 10% | 0% | 0% | 0% | 0% | 0% | pest or weed control at 250 g/ha [7]: 40%; plant injury at 15.625 g/ha (corn (Zea mays) [8]): 0%; plant injury at 62.5 g/ha (corn (Zea mays) [8]): 0%; plant injury at 250 g/ha (corn (Zea mays) [8]): 20%; pest or weed control at 15.625 g/ha [9]: 0%; pest or weed control at 62.5 g/ha [9]: 0%; pest or weed control at 250 g/ha [9]: 60%; pest or weed control at 15.625 g/ha [10]: 0%; pest or weed control at 62.5 g/ha [10]: 0%; pest or weed control at 250 g/ha [10]: 20%; pest or weed control at 15.625 g/ha [11]: 0%; pest or weed control at 62.5 g/ha [11]: 0%; pest or weed control at 250 g/ha [11]: 0%; pest or weed control at 15.625 g/ha [12]: 0%; pest or weed control at 62.5 g/ha [12]: 0%; pest or weed control at 250 g/ha [12]: 10%
